Data from paper PMC12040169 (PLOS Biology, 2025).

Test: in vitro
Details: human, hela cells, % viability

Row | SMILES | viability at 28.5 h, 10 µM
1 | O=[N+]([O-])c1ccc(N2CCN(S(=O)(=O)c3ccc(Cl)cc3)CC2)cc1NCc1cccnc1 [CBK264749] | 123%
2 | O=C(Cc1ccc(Cl)cc1)Nc1cccc(C(=O)Nc2ccccc2C(=O)O)c1 [CBK264750] | 107%
3 | COc1cc(/C=C/C(=O)NCc2ccccn2)cc(OC)c1OC [CBK264752] | 91.5%
4 | Cc1ccc(OCC(=O)O/N=C(\N)c2ccccn2)cc1C [CBK264755] | 101%
5 | COc1ccc(NC2=C(NCCO)C(=O)c3ccccc3C2=O)cc1 [CBK264756] | 102%
6 | O=C(CCC(=O)c1ccc(Cl)cc1)OCC(=O)c1cccc(I)c1 [CBK264760] | 89.9%
7 | O=C(/C=C\c1ccccc1)CC1(O)C(=O)N(Cc2cccc3ccccc23)c2ccccc21 (stereo not shown) [CBK264761] | 96.7%
8 | CC(=O)Nc1ccc(C(=O)Nc2ccc(S(=O)(=O)N3CCOCC3)cc2)cc1 [CBK264763] | 95.1%
9 | C#CCOc1ccc(/C=N/N=C(\N)c2nonc2N)cc1OC [CBK264765] | 109%
10 | CC(=O)Nc1ccc(NC(=O)/C=C/c2ccc(Cl)cc2)cc1 [CBK264766] | 116%
11 | O=[N+]([O-])c1ccccc1S(=O)(=O)Nc1ccc(S(=O)(=O)Nc2ncccn2)cc1 [CBK264768] | 109%
12 | Cc1cc(/C=C2\SC(=O)N(CC(=O)Nc3ccccc3F)C2=O)c(C)n1-c1cccnc1 [CBK264770] | 95.5%
13 | CN1CCN(c2ccc(C(=O)O)cc2)CC1 [CBK264773] | 94.8%
14 | Cc1ccc(-c2ccc(CCC(=O)O)n2NC(=O)c2ccc([N+](=O)[O-])cc2)cc1 [CBK264776] | 109%
15 | O=C(Nc1ccc(S(=O)(=O)Nc2ccc(Cl)c(C(F)(F)F)c2)cc1)c1ccc(CN2CCOCC2)cc1 [CBK264777] | 104%
16 | Cc1ccc(OCC(O)CNC(=O)c2ccccc2C(=O)O)cc1 (stereo not shown) [CBK264778] | 116%
17 | Cc1ccc(C)c(NS(=O)(=O)c2ccc(NC(=O)c3ccc(CN4CCOCC4)cc3)cc2)c1 [CBK264780] | 104%
18 | O=C(O)CCc1ccc(-c2ccc(Cl)cc2)[nH]1 [CBK264781] | 100%
19 | CC(C)(C)c1ccc(OCCCC(=O)Nc2ccc(N3CCOCC3)cc2)cc1 [CBK264783] | 88.8%
20 | O=C1CC(c2ccc(F)cc2)CC(=O)C1=CNCCN1CCN(C(=S)Nc2ccccc2)CC1 (stereo not shown) [CBK264784] | 94.1%
21 | O=C1CC(c2cccs2)CC(=O)C1=CNCCN1CCNCC1 (stereo not shown) [CBK264785] | 105%

Row | SMILES | viability at 28.5 h, 10 µM
22 | O=C(O)CN1C(=O)/C(=C/C2=Cc3ccccc3OC2)SC1=S [CBK264787] | 103%
23 | O=C(Nc1ccc(S(=O)(=O)N2CCOCC2)cc1)c1cc(-c2ccccc2)nc2ccccc12 [CBK264790] | 103%
24 | CN1CCN(c2cc(N3CCN(S(=O)(=O)c4ccc5ccccc5c4)CC3)ccc2[N+](=O)[O-])CC1 [CBK264791] | 97.6%
25 | O=C(CCN1C(=O)/C(=C\C=C\c2ccccc2)SC1=S)Nc1cc(Cl)ccc1O [CBK264792] | 96.2%
26 | Cc1cccn2c(=O)c(/C=C3\SC(=S)N(CCCC(=O)O)C3=O)c(N3CCC(C)CC3)nc12 [CBK264793] | 107%
27 | Cc1ccc(S(=O)(=O)N2CCN(c3ccc([N+](=O)[O-])c(N4CCN(C)CC4)c3)CC2)cc1 [CBK264795] | 118%
28 | O=C(O)CCc1ccc(-c2cccs2)n1-c1ccc(Cl)c(Cl)c1 [CBK264797] | 88.7%
29 | O=C(CCN1C(=O)/C(=C\C=C\c2ccccc2)SC1=S)Nc1cccc(C(=O)O)c1 [CBK264798] | 109%
30 | O=[N+]([O-])c1ccccc1OCCCn1c2ccccc2c2ccccc21 [CBK264799] | 92.1%
31 | Cc1ccccc1Nc1nc(-c2ccc([N+](=O)[O-])cc2)nc2ccccc12 [CBK264803] | 119%
32 | Cc1cccc(C(=O)Oc2ccc(C(c3c(C)n[nH]c3O)c3c(C)n[nH]c3O)cc2)c1 [CBK264804] | 102%
33 | CC(Sc1ccc(Cl)cc1)C(=O)Nc1ccc(S(=O)(=O)Nc2ccc(Cl)cc2)cc1 (stereo not shown) [CBK264805] | 97.9%
34 | O=C(O)CCC(=O)CCC(=O)c1cccs1 [CBK264807] | 94.2%
35 | O=C(O)CN1C(=O)/C(=C\c2ccc(Oc3ccc(C(F)(F)F)cc3[N+](=O)[O-])cc2)SC1=S [CBK264809] | 97.9%
36 | COc1ccccc1N(CC(=O)Nc1c(C)cccc1C)S(=O)(=O)c1ccc(C)cc1 [CBK264810] | 96.5%
37 | Cc1cc(C)n(CC(O)CN2C(=O)NC(C)(C)C2=O)n1 (stereo not shown) [CBK264811] | 107%
38 | COc1ccc(C2=C(CC(=O)O)C(=O)CC2)cc1 [CBK264812] | 89.2%
39 | Cc1cccc(N(CC(=O)Nc2ccc3c(c2)oc2ccccc23)S(=O)(=O)c2ccccc2)c1 [CBK264813] | 101%
40 | COc1ccc(N(CC(=O)Nc2ccc3c(c2)oc2ccccc23)S(=O)(=O)c2ccccc2)cc1 [CBK264814] | 104%
41 | Cc1[nH]nc(O)c1C(c1ccc(OC(=O)c2ccc(F)cc2)cc1)c1c(O)n[nH]c1C [CBK264816] | 96.8%
42 | CCC(=O)N1CCN(CCNC=C2C(=O)CC(c3cccs3)CC2=O)CC1 (stereo not shown) [CBK264817] | 97%

Row | SMILES | viability at 28.5 h, 10 µM
43 | O=C(CCN1C(=O)/C(=C\C=C\c2ccccc2)SC1=S)Nc1ccc(C(=O)O)cc1 [CBK264818] | 104%
44 | O=C(COC(=O)c1ccc(Cl)c(Cl)c1)c1ccc(Oc2ccc([N+](=O)[O-])cc2)cc1 [CBK264821] | 117%
45 | CCOC(=O)c1sc(Nc2nc(C)cc(OC)n2)nc1C [CBK264822] | 108%
46 | CC1(C)NC(=O)N(CC(O)CNC23CC4CC(CC(C4)C2)C3)C1=O (stereo not shown) [CBK264823] | 95.5%
47 | O=C(CCC(=O)c1ccc2c(c1)OCCO2)OCC(=O)c1ccc(Cl)c(Cl)c1 [CBK264825] | 87.5%
48 | Cc1cc(Cl)c(OCCn2c3ccccc3c3ccccc32)c(Br)c1 [CBK264826] | 92.2%
49 | Nc1nnc(SCc2cccc3ccccc23)[nH]1 [CBK264830] | 103%
50 | N=C1NC(=O)/C(=C\c2cccc(C(=O)O)c2)S1 [CBK264832] | 97.6%
51 | CCc1cc2c(=O)c(-c3nc(C)cs3)c(CCCC(=O)O)oc2cc1O [CBK264834] | 101%
52 | Cc1ccc(/C=C/C(=O)O)cc1S(=O)(=O)N(CCO)CCO [CBK264840] | 99%
53 | Cc1cc(/C=C2\NC(=O)NC2=O)c(C)n1-c1ccc(OCc2ccccc2F)cc1 [CBK264842] | 88.3%
54 | Cn1c(SCC(=O)c2ccc([N+](=O)[O-])cc2)nnc1-c1ccc(N)cc1 [CBK264843] | 97.9%
55 | CN1CCN(CC(=O)Nc2ccc(OCc3ccccc3)cc2)CC1 [CBK264844] | 103%
56 | COc1ccc(NC2=CC(=O)CC(c3ccc(C)cc3)C2)c(OC)c1 (stereo not shown) [CBK264845] | 111%
57 | COc1ccccc1OCCOc1c(Cl)cc(/C=C2\SC(=S)NC2=O)cc1Cl [CBK264848] | 93.9%
58 | O=C1/C(=C/c2cn(Cc3cccc4ccccc34)c3ccccc23)C(O)=NN1c1ccccc1 [CBK264849] | 94.7%
59 | Oc1nc(CSc2nnc(-c3ccncc3)n2-c2ccccc2)nc2ccccc12 [CBK264851] | 97.5%
60 | CNC(=S)NCCc1c[nH]c2ccccc12 [CBK264853] | 108%
61 | COc1ccc2nc(Nc3nc(=O)cc(CSc4nc5ccccc5s4)[nH]3)nc(C)c2c1 [CBK264854] | 110%
62 | COc1cccc(C2C(C(=O)c3ccc(Br)cc3)=C(O)C(=O)N2CCN2CCOCC2)c1OC (stereo not shown) [CBK264855] | 110%
63 | Cc1cc(=O)nc(N/C(N)=N/c2cccc([N+](=O)[O-])c2)[nH]1 [CBK264857] | 102%

Row | SMILES | viability at 28.5 h, 10 µM
64 | COc1ccc(C(=O)C2=C(O)C(=O)N(CCN3CCOCC3)C2c2ccc(O)c(OC)c2)c(C)c1 (stereo not shown) [CBK264858] | 88%
65 | O=C(Oc1ccc(F)cc1C(=O)/C=C/c1ccccc1F)c1cccc([N+](=O)[O-])c1 [CBK264859] | 86.9%
66 | O=C(CC1Sc2ccc(Cl)cc2NC1=O)Nc1ccc([N+](=O)[O-])cc1 (stereo not shown) [CBK264860] | 98%
67 | COCCCN1C(=O)C(O)=C(C(=O)c2ccc(C)o2)C1c1ccc(OC)cc1 (stereo not shown) [CBK264863] | 103%
68 | COc1cccc(C2C(C(=O)c3ccc(Cl)cc3)=C(O)C(=O)N2CCCN2CCOCC2)c1 (stereo not shown) [CBK264865] | 105%
69 | O=C(O)CCC(=O)Nc1ccc(S(=O)(=O)Nc2ccc(I)cc2)cc1 [CBK264866] | 99.9%
70 | O=C(Nc1ccc(S(=O)(=O)Nc2ncccn2)cc1)c1ccc(N2C(=O)c3ccccc3C2=O)cc1 [CBK264868] | 94%
71 | COc1ccc(C(=O)C2=C(O)C(=O)N(CCCN(C)C)C2c2ccncc2)cc1C (stereo not shown) [CBK264871] | 102%
72 | COc1cccc(C(=O)COC(=O)c2ccc3c(c2)C(=O)N(c2ccc(C(C)=O)cc2)C3=O)c1 [CBK264872] | 84%
73 | COC(=O)CNC(=O)c1ccc(S(=O)(=O)N2CCOCC2)cc1 [CBK264873] | 109%
74 | COc1ccc(C(=O)C2=C(O)C(=O)N(CCN(C)C)C2c2cccc([N+](=O)[O-])c2)cc1C (stereo not shown) [CBK264875] | 85.2%
75 | Cc1cccc(C)c1NC(=O)CN(c1ccc(F)cc1)S(=O)(=O)c1ccc2c(c1)OCCO2 [CBK264878] | 104%
76 | Cc1ccc(C)c(NC(=S)NCCc2ccc(S(N)(=O)=O)cc2)c1 [CBK264879] | 100%
77 | COC(=O)CNC(=O)c1ccc(S(=O)(=O)N2CCCC2)cc1 [CBK264880] | 88.4%
78 | O=C1c2cccc3cccc(c23)C(=O)N1CCN1CCN(CC(O)COc2ccc(Cl)cc2Cl)CC1 (stereo not shown) [CBK264881] | 94.5%
79 | Cc1ccc(-c2nnc3s/c(=C\c4ccc([N+](=O)[O-])cc4)c(=O)n23)cc1 [CBK264882] | 101%
80 | CC1CCc2sc3ncnc(N4CCN(CCOC(c5ccccc5)c5ccccc5)CC4)c3c2C1 (stereo not shown) [CBK264884] | 86.6%
81 | O=C(OCn1nnc2ccccc2c1=O)c1cccc([N+](=O)[O-])c1 [CBK264887] | 104%
82 | Cc1cccc(NC(=S)NCCc2ccc(S(N)(=O)=O)cc2)c1C [CBK264889] | 86.5%
